Values of other authors in patent US20040209811A1, “Oral prohylactic agent against viral infection” (Chuang-Chun Chiueh, priority 2003, published 2004).

How the values were obtained:
[1] = test system: enterovirus; conditions: full prevention of infection; protected cells from viral invasion and pathological changes
[2] = test system: cells; conditions: at >0.3 μM concentration
[3] = test system: influenza viruses

Substance: phycocyanin
- concentration that could fully prevent enteroviral infection [1]: > 0.3 µM
- toxicity to cells [2]: non-toxic to cells
- concentration found to prevent the infection of influenza viruses [3]: > 0.04 µM
